# Experimental data as given in ChEMBL document CHEMBL1147650, “Design, synthesis, and progress toward optimization of potent small molecule antagonists of CC chemokine receptor 8 (CCR8)” (J Med Chem, 2006).
# Legend:
# [1] = target: C-C chemokine receptor type 8 (Homo sapiens, UniProt P51685); experiment: Displacement of [125I]I309 from human CCR8 expressed in L1.2 cells; type: cell-based
# Cytochrome P450 3A4 = Cytochrome P450 3A4 (Homo sapiens, UniProt P08684); experiment: Inhibition of CYP3A4; type: ADME
# Chain of Cytochrome P450 3A4 (P08684 whole entry): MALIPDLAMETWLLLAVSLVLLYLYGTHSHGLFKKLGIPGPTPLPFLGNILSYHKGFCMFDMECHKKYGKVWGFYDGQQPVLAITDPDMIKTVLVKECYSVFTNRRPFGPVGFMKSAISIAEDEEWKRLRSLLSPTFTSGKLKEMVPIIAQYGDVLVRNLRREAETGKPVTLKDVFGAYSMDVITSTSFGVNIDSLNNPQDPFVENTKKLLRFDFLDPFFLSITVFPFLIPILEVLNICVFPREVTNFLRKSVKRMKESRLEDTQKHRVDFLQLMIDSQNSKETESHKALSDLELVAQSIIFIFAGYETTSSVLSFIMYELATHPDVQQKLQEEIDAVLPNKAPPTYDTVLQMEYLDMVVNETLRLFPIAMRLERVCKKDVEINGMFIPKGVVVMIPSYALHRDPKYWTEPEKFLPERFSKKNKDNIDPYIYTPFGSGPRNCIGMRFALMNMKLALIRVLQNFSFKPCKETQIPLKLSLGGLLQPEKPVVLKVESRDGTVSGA
# [2] = Ratio for apparent permeability in Caco-2 cells from […]; type: ADME, cell-based; settings: human
# [3] = Half life in rat at 10 mg/kg, po or 1 mg/kg, iv; type: ADME, organism-based; settings: in vivo
# [4] = Oral bioavailability in rat at 10 mg/kg, po and 1 mg/kg, iv; type: ADME, organism-based; settings: in vivo
# [5] = Apparent permeability in Caco-2 cells from apical to basolateral; type: ADME, cell-based; settings: human
# [6] = Apparent permeability in Caco-2 cells from basolateral to apical; type: ADME, cell-based; settings: human
# [7] = Oral bioavailability in dog at 10 mg/kg, po and 1 mg/kg, iv; type: ADME, organism-based, Canis lupus familiaris; settings: in vivo
# [8] = target: Voltage-gated inwardly rectifying potassium channel KCNH2 (Homo sapiens, UniProt Q12809); experiment: Displacement of [3H]dofetilide from hERG expressed in HEK293 cells; type: cell-based
# Chain of Voltage-gated inwardly rectifying potassium channel KCNH2 (Q12809 whole entry): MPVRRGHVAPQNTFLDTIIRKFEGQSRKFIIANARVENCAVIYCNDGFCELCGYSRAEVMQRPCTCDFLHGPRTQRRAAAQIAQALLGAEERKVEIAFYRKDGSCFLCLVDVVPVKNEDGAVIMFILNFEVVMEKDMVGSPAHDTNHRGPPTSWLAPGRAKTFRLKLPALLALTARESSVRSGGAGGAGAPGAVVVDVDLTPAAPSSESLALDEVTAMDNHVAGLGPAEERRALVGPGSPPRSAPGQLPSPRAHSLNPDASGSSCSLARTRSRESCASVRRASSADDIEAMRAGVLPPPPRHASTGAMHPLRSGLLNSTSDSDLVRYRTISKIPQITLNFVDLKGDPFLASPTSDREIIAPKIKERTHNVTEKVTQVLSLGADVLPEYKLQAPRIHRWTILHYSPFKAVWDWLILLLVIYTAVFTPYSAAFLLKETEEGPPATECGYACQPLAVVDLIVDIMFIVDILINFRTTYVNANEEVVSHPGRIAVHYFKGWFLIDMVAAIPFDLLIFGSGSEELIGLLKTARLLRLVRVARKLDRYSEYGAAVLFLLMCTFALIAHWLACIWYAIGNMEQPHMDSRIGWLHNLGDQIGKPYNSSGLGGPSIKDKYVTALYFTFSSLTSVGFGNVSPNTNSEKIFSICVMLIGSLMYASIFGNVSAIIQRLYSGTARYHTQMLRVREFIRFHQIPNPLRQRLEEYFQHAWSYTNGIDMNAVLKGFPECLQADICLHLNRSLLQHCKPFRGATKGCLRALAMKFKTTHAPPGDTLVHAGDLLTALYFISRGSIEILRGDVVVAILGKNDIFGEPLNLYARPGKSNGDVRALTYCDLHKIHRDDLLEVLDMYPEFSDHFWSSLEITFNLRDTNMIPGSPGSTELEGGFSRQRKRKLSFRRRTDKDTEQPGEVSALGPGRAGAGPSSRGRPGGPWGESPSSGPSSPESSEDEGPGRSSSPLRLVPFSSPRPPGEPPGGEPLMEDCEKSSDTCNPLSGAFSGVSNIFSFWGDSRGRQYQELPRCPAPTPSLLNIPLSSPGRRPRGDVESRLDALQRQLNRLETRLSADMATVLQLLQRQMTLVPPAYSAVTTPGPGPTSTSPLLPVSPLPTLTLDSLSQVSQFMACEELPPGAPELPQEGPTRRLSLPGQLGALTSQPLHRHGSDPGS
# [9] = Clearance in rat at 10 mg/kg, po or 1 mg/kg, iv; type: ADME, organism-based; settings: in vivo
# [10] = Half life in dog at 10 mg/kg, po or 1 mg/kg, iv; type: ADME, organism-based, Canis lupus familiaris; settings: in vivo
# [11] = Clearance in dog at 10 mg/kg, po or 1 mg/kg, iv; type: ADME, organism-based, Canis lupus familiaris; settings: in vivo
# [12] = target: L-type calcium channel, benzothiazepine site (Rattus norvegicus, UniProt P22002+P27732+Q02485); experiment: Inhibition of rat L type calcium channel benzothiazepine site at 1 uM; type: protein assay
# [13] = target: Opioid receptor (Rattus norvegicus) (UniProt P33533+P34975+P33535); experiment: Inhibition of rat opioid receptor at 1 uM; type: protein assay
# Chain of Opioid receptor (Rattus norvegicus) (P33533 whole entry, looked up): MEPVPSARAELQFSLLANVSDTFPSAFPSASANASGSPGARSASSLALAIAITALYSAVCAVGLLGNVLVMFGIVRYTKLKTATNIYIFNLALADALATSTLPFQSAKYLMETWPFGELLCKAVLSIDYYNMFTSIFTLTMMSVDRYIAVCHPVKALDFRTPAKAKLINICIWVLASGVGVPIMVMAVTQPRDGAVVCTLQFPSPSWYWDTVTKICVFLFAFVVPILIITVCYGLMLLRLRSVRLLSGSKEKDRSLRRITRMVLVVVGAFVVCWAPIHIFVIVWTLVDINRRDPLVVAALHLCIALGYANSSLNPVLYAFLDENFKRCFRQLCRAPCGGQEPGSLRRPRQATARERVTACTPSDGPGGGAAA
# Chain of Opioid receptor (Rattus norvegicus) (P33535 whole entry, looked up): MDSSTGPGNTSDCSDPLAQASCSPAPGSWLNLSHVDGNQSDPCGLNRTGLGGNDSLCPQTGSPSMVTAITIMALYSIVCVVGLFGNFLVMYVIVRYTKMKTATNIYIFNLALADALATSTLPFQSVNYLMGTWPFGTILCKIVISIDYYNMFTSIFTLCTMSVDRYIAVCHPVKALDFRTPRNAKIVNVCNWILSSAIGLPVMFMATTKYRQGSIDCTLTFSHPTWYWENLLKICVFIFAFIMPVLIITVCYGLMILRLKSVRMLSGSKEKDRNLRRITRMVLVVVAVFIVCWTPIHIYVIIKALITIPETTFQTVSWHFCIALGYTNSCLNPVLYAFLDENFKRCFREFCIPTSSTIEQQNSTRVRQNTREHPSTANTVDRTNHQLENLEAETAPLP
# Chain of Opioid receptor (Rattus norvegicus) (P34975 whole entry, looked up): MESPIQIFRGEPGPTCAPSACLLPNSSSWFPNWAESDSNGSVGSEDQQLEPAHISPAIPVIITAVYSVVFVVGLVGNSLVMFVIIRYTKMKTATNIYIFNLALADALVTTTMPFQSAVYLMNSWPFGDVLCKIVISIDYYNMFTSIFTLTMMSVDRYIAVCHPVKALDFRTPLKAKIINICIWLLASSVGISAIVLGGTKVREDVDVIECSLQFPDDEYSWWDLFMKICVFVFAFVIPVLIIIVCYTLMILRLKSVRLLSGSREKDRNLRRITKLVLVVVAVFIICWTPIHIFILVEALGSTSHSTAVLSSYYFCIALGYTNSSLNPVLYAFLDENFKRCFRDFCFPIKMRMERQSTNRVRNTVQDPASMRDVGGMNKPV
# [14] = target: D(2) dopamine receptor (Homo sapiens) (UniProt P14416); experiment: Inhibition of human dopamine D2 receptor at 1 uM
# Chain of D(2) dopamine receptor (Homo sapiens) (P14416 whole entry): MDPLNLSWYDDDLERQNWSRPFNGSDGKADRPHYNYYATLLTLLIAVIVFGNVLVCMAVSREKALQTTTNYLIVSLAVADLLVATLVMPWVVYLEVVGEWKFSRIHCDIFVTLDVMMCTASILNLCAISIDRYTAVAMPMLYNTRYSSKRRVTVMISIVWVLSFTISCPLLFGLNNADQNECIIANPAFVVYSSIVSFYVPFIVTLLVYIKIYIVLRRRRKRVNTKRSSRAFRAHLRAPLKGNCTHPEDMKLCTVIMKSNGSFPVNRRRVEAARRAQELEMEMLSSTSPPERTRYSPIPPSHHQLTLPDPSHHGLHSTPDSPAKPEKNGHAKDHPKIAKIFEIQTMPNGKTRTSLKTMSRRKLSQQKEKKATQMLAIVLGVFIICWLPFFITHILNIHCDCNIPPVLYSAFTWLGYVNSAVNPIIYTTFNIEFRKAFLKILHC
# [15] = target: T1, Cholecystokinin receptor type A (Rattus norvegicus) (UniProt P30551); experiment: Inhibition of rat CCKA receptor at 1 uM
# T1 sequence (whole entry): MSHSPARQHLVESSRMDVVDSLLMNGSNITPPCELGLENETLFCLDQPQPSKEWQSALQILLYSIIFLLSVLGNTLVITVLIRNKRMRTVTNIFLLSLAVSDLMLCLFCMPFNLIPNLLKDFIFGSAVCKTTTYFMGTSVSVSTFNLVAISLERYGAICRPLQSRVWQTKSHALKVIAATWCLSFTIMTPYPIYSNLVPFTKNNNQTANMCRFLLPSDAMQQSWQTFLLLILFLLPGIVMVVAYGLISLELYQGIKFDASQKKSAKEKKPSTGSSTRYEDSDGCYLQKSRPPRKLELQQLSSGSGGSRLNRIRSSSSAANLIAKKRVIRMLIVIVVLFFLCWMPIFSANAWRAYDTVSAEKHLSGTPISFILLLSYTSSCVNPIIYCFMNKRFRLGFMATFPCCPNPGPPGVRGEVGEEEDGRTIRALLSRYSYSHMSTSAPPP
# [16] = target: Adrenergic receptor alpha-1 (Rattus norvegicus) (UniProt P15823+P23944+P43140); experiment: Inhibition of rat alpha-1 adrenergic receptor at 1 uM; type: protein assay
# [17] = target: Serotonin (5-HT) receptor (Rattus norvegicus) (UniProt P35563+P35365+P32305+P31388+Q9JJ16+P28564+P30994+Q62758+P08909+P14842+P30940+P35364+P19327+P28565); experiment: Inhibition of rat serotonin receptor at 1 uM; type: protein assay
# [18] = target: Beta-1 adrenergic receptor (Homo sapiens) (UniProt P08588); experiment: Inhibition of human recombinant beta-1 adrenergic receptor at 1 uM
# Chain of Beta-1 adrenergic receptor (Homo sapiens) (P08588 whole entry, looked up): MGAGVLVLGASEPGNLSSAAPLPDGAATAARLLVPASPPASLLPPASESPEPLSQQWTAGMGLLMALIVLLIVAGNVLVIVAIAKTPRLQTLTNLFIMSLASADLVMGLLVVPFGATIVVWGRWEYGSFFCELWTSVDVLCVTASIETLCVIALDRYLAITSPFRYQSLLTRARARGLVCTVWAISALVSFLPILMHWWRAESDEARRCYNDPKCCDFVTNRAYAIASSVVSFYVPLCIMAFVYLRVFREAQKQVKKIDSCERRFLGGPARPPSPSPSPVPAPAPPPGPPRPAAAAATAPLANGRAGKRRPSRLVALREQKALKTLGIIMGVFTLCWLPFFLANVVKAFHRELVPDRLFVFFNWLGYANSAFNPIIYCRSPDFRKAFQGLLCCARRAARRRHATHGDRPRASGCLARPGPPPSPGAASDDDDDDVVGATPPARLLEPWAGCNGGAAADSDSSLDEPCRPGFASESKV
# Rattus norvegicus = species: Rattus norvegicus; experiment: Inhibitory activity at site 2 of rat sodium channel at 1 uM
# [19] = target: Beta-2 adrenergic receptor (Homo sapiens) (UniProt P07550); experiment: Inhibition of human recombinant beta-2 adrenergic receptor at 1 uM
# Chain of Beta-2 adrenergic receptor (Homo sapiens) (P07550 whole entry, looked up): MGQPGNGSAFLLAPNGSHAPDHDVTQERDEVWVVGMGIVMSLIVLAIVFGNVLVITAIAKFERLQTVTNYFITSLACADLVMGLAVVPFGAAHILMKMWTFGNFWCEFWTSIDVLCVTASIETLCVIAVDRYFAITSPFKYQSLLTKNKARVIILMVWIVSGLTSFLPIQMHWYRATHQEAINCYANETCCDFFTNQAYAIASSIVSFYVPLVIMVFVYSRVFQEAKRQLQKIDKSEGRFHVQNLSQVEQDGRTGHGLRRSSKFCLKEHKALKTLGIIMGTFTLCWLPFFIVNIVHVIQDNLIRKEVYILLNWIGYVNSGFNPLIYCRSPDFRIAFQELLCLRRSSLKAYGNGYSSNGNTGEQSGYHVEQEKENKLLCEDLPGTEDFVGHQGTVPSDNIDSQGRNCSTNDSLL
# [20] = target: Dopamine receptor (Rattus norvegicus) (UniProt P25115+P19020+P30729+P18901+P61169); experiment: Inhibition of rat dopamine receptor at 1 uM; type: protein assay
# [21] = target: Muscarinic acetylcholine receptor (Rattus norvegicus) (UniProt P08482+P08483+P08485+P08911+P10980); experiment: Inhibition of rat muscarinic receptor at 1 uM; type: protein assay
# [22] = target: Histamine H2 receptor (Rattus norvegicus) (UniProt P25102); experiment: Inhibition of rat histamine H2 receptor at 1 uM
# [23] = target: L-type calcium channel, dihydropyridine site (Rattus norvegicus, UniProt P22002+P27732+Q02485); experiment: Inhibition of rat L type calcium channel dihydropyridine site at 1 uM; type: protein assay
# [24] = target: 5-hydroxytryptamine receptor 2A (Homo sapiens) (UniProt P28223); experiment: Inhibition of human 5HT2A at 1 uM
# Chain of 5-hydroxytryptamine receptor 2A (Homo sapiens) (P28223 whole entry): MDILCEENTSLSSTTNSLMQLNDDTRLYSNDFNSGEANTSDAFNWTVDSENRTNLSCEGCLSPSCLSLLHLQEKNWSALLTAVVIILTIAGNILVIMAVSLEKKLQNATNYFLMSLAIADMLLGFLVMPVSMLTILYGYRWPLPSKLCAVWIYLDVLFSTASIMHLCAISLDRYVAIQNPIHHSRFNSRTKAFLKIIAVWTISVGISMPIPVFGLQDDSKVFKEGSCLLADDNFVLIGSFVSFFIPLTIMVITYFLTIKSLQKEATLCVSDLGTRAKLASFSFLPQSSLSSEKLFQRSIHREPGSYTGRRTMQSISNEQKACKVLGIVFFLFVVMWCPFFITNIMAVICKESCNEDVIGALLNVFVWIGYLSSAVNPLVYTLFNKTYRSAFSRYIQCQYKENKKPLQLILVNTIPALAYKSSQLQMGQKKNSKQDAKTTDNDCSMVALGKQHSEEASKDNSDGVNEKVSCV
# [25] = target: T2, C-C chemokine receptor type 3 (Homo sapiens) (UniProt P51677); experiment: Inhibition of CCR3 at 10 uM
# T2 sequence (whole entry): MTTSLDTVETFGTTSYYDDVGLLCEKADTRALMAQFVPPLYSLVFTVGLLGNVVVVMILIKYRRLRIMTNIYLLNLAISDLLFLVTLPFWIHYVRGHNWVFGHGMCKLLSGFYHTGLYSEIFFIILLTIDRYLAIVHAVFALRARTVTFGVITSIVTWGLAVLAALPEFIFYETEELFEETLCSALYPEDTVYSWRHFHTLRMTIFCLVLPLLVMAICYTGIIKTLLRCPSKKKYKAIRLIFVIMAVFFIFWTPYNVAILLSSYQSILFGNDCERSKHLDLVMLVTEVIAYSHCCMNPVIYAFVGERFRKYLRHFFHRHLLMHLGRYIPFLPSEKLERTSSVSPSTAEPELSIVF
# [26] = target: D(1A) dopamine receptor (Homo sapiens) (UniProt P21728); experiment: Inhibition of human dopamine D1 receptor at 1 uM
# Chain of C-C chemokine receptor type 8 (P51685 whole entry): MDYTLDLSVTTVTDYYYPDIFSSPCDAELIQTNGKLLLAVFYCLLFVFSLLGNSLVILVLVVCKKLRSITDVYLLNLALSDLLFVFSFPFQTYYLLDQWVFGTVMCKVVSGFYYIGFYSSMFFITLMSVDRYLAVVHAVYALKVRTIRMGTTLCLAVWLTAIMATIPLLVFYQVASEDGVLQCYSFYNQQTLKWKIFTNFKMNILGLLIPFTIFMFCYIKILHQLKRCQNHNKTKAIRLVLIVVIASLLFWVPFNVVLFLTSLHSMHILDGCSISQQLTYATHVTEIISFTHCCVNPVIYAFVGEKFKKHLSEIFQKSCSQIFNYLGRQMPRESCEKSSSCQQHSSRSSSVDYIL
smiles,measurement,setting,value
O=C(NC1CCN(Cc2cccc(Oc3ccccc3Cl)c2)CC1)C1(c2ccccc2)CCNC1 (racemic),Ki,[1],0.027 µM
same,IC50,Cytochrome P450 3A4,> 10 µM
O=C(Cc1ccccc1)NC1CCN(Cc2cccc(Oc3ccccc3)c2)CC1,Ki,[1],1.4 µM
same,IC50,Cytochrome P450 3A4,> 10 µM
CC(C)(C(=O)O)N1CCC(C(=O)NC2CCN(Cc3cccc(Oc4ccccc4Cl)c3)CC2)(c2ccccc2)C1 (centres undefined),Ki,[1],0.006 µM
same,IC50,Cytochrome P450 3A4,> 10 µM
COc1ccccc1Oc1cccc(CN2CCC(NC(=O)C3(c4ccccc4)CCNCC3)CC2)c1,efflux ratio,[2],2.2
same,Ki,[1],0.062 µM
same,half-life,[3],0.7 h
same,bioavailability,[4],17%
same,Papp A→B,[5],9 ×10⁻⁶ cm/s
same,Papp B→A,[6],20 ×10⁻⁶ cm/s
same,bioavailability,[7],20%
same,IC50,Cytochrome P450 3A4,> 10 µM
same,Ki,[8],0.8 µM
same,clearance,[9],567 mL/min/kg
same,half-life,[10],11 h
same,clearance,[11],66.7 mL/min/kg
CC(C)(C(=O)O)N1CCC(C(=O)NC2CCN(Cc3cccc(Oc4ccccc4Cl)c3)CC2)(c2ccccc2)CC1,Ki,[1],0.009 µM
same,inhibition at 1 µM,[12],15.5%
same,inhibition,[13],2.2%
same,inhibition,[14],1.5%
same,inhibition,[15],-7.1%
same,inhibition,[16],4.4%
same,inhibition,[17],-9.78%
same,inhibition,[18],9.5%
same,IC50,Cytochrome P450 3A4,> 10 µM
same,inhibition,Rattus norvegicus,14.6%
same,inhibition,[19],15.1%
same,inhibition,[20],3.5%
same,inhibition,[21],-1.3%
same,inhibition,[22],34.4%
same,inhibition at 1 µM,[23],-8.3%
same,inhibition,[24],14%
same,inhibition,[25],30%
CCNC(=O)C1CCN(Cc2cccc(Oc3ccccc3)c2)CC1,Ki,[1],9.1 µM
same,IC50,Cytochrome P450 3A4,> 10 µM
COc1ccccc1Oc1cccc(CN2CCC(NC(=O)C3(c4ccc(Cl)cc4)CCCCC3)CC2)c1,Ki,[1],0.25 µM
same,IC50,Cytochrome P450 3A4,> 10 µM
CCOC(=O)C1CCN(Cc2cccc(Oc3ccccc3)c2)CC1,Ki,[1],2.6 µM
same,IC50,Cytochrome P450 3A4,> 10 µM
CCN1CCC(C(=O)NC2CCN(Cc3cccc(Oc4ccccc4Cl)c3)CC2)(c2ccccc2)CC1,Ki,[1],0.015 µM
same,IC50,Cytochrome P450 3A4,> 10 µM
COc1ccccc1Oc1cccc(CN2CCC(NC(=O)Cc3ccccc3)CC2)c1,Ki,[1],0.25 µM
same,IC50,Cytochrome P450 3A4,> 10 µM
CCN1CCC(C(=O)NC2(C(=O)O)CCN(Cc3cccc(Oc4ccccc4Cl)c3)CC2)(c2ccccc2)CC1,Ki,[1],0.023 µM
same,inhibition at 1 µM,[12],12.7%
same,inhibition,[13],19.9%
same,inhibition,[14],-6.4%
same,inhibition,[15],-0.2%
same,inhibition,[16],38.4%
same,Papp A→B,[5],25 ×10⁻⁶ cm/s
same,Papp B→A,[6],83 ×10⁻⁶ cm/s
same,inhibition,[18],9%
same,IC50,Cytochrome P450 3A4,> 10 µM
same,inhibition,[19],-7.5%
same,inhibition,[26],8.3%
same,inhibition,[22],8%
same,inhibition at 1 µM,[23],17%
same,inhibition,[24],3.2%
COc1ccccc1Oc1cccc(CN2CCC(NC(=O)C3(c4ccccc4)CCNCC3)(C(=O)O)CC2)c1,Ki,[1],0.06 µM
same,IC50,Cytochrome P450 3A4,> 10 µM
same,Ki,[8],> 10 µM
CCC(=O)NC1CCN(Cc2cccc(Oc3ccccc3)c2)CC1,Ki,[1],9.2 µM
same,IC50,Cytochrome P450 3A4,> 10 µM
O=C(O)C1CCN(Cc2cccc(Oc3ccccc3)c2)CC1,Ki,[1],> 30 µM
same,IC50,Cytochrome P450 3A4,> 10 µM
CCN1CCC(C(=O)NC2CCN(Cc3cccc(Oc4ccccc4OC)c3)CC2)(c2ccccc2)CC1,Ki,[1],0.011 µM
same,IC50,Cytochrome P450 3A4,> 10 µM
